Measurements published in US12358911B2, “Heterocyclic comipound as CDK-HDAC dual pathway inhibitor” (Hangzhou Innogate Pharma Co., Ltd., priority 2018, dated 2025).

Assays:
Type in all cases: biochemical
[1] = biological target: CDK2/CycA2 (Homo sapiens (Human), UniProt P24941); assay: CDK2 kinase assay (Mobility Shift Assay); settings: 28° C.
Experimental: (§1) • Method 1: In vitro enzymatic activity of the CDK isoforms CDK2/CycA2, CDK4/CycD3 and CDK6/cycD3 were measured using Mobility Shift Assay that monitors phosphorylation ratio of FAM labelled peptide (Peptide 18 for CDK2/CycA2, Peptide 8 for CDK4/CycD3). CDK2/CycA2 and CDK6/CycD3 were assayed under buffer conditions in the presence of 50 mM HEPES (pH 7.5), 10 mM MgCl2, 0.0015% Brij-35 and 2 mM dithiothreitol; CDK4/CycD3 with buffer condition of 20 mM HEPES (pH 7.5), 10 mM MgCl2, 0.01% Triton X-100 and 2 mM dithiothreitol. Prepare compounds to 50× of the final desired highest inhibitor concentration by 100% DMSO and serial dilution in 3-fold for total of 10 concentrations. For each isoform, dosage of enzyme and substrate are CDK2/CycA2 12 nM, ATP Km 39 μM; CDK4/CycD3 10 nM, ATP Km 221 μM; CDK6/cycD3 15 nM, ATP Km 800 μM. After assay for 60 min, 180 min, 60 min respectively at 28° C., reactions were terminated with stop solution (50 mM EDTA, 0.015% Brij-35, 0.2% Coating Reagent #3 and 100 mM HEPES (pH 7.5)). Collect conversion on Caliper EZ Reader. IC50 values were calculated by fitting the dose-response curves with Xlfit excel add-in version 4.3.1. • Method 2: In vitro enzymatic activity of the CDK isoforms CDK2/CycA2, CDK4/CycD3 and CDK6/CycD3 were measured using Mobility Shift Assay that monitors phosphorylation ratio of FAM labelled peptide (Peptide 18 for CDK2/CycA2, Peptide 8 for CDK4/CycD3 and CDK6/CycD3). CDK2/CycA2, CDK4/CycD3 and CDK6/cycD3 were assayed under buffer conditions in the presence of 50 mM HEPES (pH 7.5), 10 mM MgCl2, 0.0015% Brij-35 and 2 mM dithiothreitol. Prepare compounds to 100× of the final desired highest inhibitor concentration by 100% DMSO and serial dilution in 3-fold for total of 10 concentrations, each concentration contains 1% DMSO. […] After assay for 30 min, 150 min, 150 min respectively at 28° C., reactions were terminated with stop solution (50 mM EDTA, 0.015% Brij-35, 0.2% Coating Reagent #3 and 100 mM HEPES (pH 7.5)). Collect conversion on Caliper EZ Reader. IC50 values were calculated by fitting the dose-response curves with GraphPad Prism V5.0.

[2] = biological target: recombinant, full-length HDAC-1 (Homo sapiens (Human), UniProt Q13547); assay: HDAC-1 assay (fluorogenic Ac-peptide-AMC)
Sequence of recombinant, full-length HDAC-1 (Q13547 whole entry): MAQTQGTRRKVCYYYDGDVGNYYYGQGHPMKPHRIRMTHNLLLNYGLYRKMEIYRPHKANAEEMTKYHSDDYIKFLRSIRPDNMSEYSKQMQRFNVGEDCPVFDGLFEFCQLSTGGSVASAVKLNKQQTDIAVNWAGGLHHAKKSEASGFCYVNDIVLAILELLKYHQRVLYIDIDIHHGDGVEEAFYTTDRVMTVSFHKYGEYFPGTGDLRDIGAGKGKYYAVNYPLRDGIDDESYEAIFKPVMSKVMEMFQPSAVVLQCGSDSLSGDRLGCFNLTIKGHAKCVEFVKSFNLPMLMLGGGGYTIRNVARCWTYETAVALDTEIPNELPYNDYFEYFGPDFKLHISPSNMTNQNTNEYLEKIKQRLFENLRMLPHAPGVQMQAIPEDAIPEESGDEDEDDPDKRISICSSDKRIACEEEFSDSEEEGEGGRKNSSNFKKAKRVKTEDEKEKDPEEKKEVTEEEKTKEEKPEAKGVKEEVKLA
Experimental: (§2) 2. HDAC-1 and HDAC-6 Assays: • Method 1: The inhibitory effect of compounds on HDAC-1 and HDAC-6 function was determined in vitro using an optimized homogenous assay performed in 384-well plate format. In this assay, recombinant, full-length HDAC-1 or HDAC-6 protein (BPS Biosciences) was incubated with Ac-peptide-AMC with concentration in Km plot. Reactions were performed in Tris-based assay buffer and followed for fluorogenic release of 7-amino-4-methylcoumarin from substrate upon deacetylase and trypsin enzymatic activity. Fluorescence measurements were obtained using a multilabel plate reader (Synergy MX with excitation at 355 nm and emission at 460 nm.). Data were analyzed on a plate-by-plate basis for the linear range of fluorescence over time. Fit the data in GraphPad Prism V5.0 software to obtain ICso values using equation (Y=Bottom+(Top−Bottom)/(1+10^((Log IC50−X)*Hill Slope), Y is % inhibition and X is compound concentration).
as §2, with “The testing results of the representative compounds are listed in Table 1 below. •” for “2. HDAC-1 and HDAC-6 Assays: •”, “Method 2:” for “Method 1:”, “HDAC-1 (Active Motif) and” for “HDAC-1 or”, “(Synergy” for “(Synergy MX”, “obtain IC50” for “obtain ICso”

[3] = biological target: recombinant, full-length HDAC-6 (Homo sapiens (Human), UniProt Q9UBN7); assay: HDAC-6 assay (fluorogenic Ac-peptide-AMC)
Sequence of recombinant, full-length HDAC-6 (Q9UBN7 whole entry): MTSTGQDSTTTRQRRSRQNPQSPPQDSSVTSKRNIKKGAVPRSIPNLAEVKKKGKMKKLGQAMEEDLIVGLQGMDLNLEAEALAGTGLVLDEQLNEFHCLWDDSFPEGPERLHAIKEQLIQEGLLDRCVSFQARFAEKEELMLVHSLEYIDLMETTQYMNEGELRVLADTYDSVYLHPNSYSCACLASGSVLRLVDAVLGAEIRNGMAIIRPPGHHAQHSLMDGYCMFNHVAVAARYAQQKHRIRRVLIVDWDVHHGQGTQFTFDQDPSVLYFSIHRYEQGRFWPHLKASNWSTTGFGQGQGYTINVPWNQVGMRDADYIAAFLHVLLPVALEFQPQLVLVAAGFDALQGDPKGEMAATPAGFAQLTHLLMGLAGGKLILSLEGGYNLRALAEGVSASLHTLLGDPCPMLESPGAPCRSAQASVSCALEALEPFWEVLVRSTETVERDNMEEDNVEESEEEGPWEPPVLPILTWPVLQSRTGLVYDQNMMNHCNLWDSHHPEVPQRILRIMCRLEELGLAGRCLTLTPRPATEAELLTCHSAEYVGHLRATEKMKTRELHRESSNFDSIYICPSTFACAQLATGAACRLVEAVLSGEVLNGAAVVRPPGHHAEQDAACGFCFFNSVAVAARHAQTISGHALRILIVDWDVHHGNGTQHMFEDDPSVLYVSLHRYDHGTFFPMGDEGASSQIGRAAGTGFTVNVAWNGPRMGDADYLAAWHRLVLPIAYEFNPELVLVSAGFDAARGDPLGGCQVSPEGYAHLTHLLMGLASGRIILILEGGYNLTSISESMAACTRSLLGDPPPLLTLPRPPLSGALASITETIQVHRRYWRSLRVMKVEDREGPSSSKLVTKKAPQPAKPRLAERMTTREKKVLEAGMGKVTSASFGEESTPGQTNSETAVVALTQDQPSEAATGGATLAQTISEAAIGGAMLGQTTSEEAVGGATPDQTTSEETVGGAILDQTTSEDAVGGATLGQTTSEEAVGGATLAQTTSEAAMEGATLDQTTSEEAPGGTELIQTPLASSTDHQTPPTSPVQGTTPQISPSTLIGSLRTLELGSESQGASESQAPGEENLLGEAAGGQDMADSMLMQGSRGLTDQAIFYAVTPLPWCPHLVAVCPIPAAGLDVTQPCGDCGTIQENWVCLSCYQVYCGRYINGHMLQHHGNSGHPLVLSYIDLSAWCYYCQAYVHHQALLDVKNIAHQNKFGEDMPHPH
Experimental: as §2
as §2, with “The testing results of the representative compounds are listed in Table 1 below. •” for “2. HDAC-1 and HDAC-6 Assays: •”, “Method 2:” for “Method 1:”, “HDAC-1 (Active Motif) and” for “HDAC-1 or”, “(Synergy” for “(Synergy MX”, “obtain IC50” for “obtain ICso”

[4] = biological target: CDK6/CycD3 (Homo sapiens (Human), UniProt Q00534); assay: CDK6 kinase assay (Mobility Shift Assay); settings: 28° C.
Sequence of CDK6/CycD3 (Q00534 whole entry, species assumed): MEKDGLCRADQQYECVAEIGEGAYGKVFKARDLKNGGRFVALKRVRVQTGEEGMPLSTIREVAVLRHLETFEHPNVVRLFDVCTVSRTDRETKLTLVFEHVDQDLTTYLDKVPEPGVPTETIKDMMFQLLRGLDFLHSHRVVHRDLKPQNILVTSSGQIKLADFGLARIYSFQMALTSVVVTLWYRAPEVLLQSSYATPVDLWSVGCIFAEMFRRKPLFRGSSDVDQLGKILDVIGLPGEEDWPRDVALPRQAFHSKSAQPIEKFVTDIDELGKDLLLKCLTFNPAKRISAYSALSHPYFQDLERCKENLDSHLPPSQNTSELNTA
Sequence of CDK6/CycD3 (P30281 whole entry partner, species assumed): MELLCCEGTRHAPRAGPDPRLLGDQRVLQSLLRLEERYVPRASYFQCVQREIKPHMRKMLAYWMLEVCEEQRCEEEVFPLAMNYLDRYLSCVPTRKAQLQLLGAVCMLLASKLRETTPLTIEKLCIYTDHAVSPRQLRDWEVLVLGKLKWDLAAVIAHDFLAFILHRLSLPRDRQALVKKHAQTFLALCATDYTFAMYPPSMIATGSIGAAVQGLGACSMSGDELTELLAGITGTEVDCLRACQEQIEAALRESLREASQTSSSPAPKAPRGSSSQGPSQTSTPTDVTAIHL
Experimental: as §1

[5] = biological target: CDK4/CycD3 (Homo sapiens (Human), UniProt P11802); assay: CDK4 kinase assay (Mobility Shift Assay); settings: 28° C.
Sequence of CDK4/CycD3 (P11802 whole entry, species assumed): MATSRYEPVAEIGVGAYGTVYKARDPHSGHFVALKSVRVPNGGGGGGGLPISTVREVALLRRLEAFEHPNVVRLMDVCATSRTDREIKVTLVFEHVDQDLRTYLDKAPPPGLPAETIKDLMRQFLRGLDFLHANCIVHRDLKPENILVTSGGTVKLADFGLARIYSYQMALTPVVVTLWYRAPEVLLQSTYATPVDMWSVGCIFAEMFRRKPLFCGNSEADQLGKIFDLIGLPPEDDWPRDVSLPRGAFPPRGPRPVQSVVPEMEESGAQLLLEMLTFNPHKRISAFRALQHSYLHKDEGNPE
Sequence of CDK4/CycD3 (P30281 whole entry partner, species assumed): as the sequence (P30281 whole entry partner, species assumed) above
Experimental: as §1

[6] = method 2: CDK2/CycA2 2.5 nM, ATP Km 17 μM, 30 min
[7] = method 2: HDAC-1 (Active Motif)
[8] = method 2: HDAC-6 protein (BPS Biosciences)
[9] = method 2: CDK6/cycD3 5 nM, ATP Km 550 μM, 150 min
[10] = method 2: CDK4/CycD3 10 nM, ATP Km 250 μM, 150 min
[11] = method 1: CDK2/CycA2 12 nM, ATP Km 39 μM, 60 min
[12] = method 1: HDAC-1 protein (BPS Biosciences)
[13] = method 1: HDAC-6 protein (BPS Biosciences)
[14] = method 1: CDK6/cycD3 15 nM, ATP Km 800 μM, 60 min
[15] = method 1: CDK4/CycD3 10 nM, ATP Km 221 μM, 180 min

Compound | IC50 [1, 6] | IC50 [2, 7] | IC50 [3, 8] | IC50 [4, 9] | IC50 [5, 10] | IC50 [1, 11] | IC50 [2, 12] | IC50 [3, 13] | IC50 [4, 14] | IC50 [5, 15]
CC(=O)c1c(C)c2cnc(Nc3ccc(N(C)CCN(C)c4ccc(C(=O)NO)cc4)cn3)nc2n(C2CCCC2)c1=O [Compound 8, 4-((2-((6-((6-acetyl-8-cyclopentyl-5-methyl-7-oxo-7,8-dihydropyrido[2,3-d]pyrimidin-2-yl)amino)pyridin-3-yl) (methyl)amino)ethyl) (methyl)amino)-N-hydroxybenzamide] | > 5000 nM |  |  | 25 to 50 nM | ≤ 10 nM |  |  |  |  | 
CC(=O)c1c(C)c2cnc(Nc3ccc(N(C)CCN(C)c4ccc(C(=O)NO)nc4)cn3)nc2n(C2CCCC2)c1=O [Compound 4, 5-((2-((6-((6-acetyl-8-cyclopentyl-5-methyl-7-oxo-7,8-dihydropyrido[2,3-d]pyrimidin-2-yl)amino)pyridin-3-yl)(methyl)amino)ethyl)(methyl)amino)-N-hydroxypicolinamide] | > 5000 nM |  |  | 25 to 50 nM | ≤ 10 nM |  |  |  |  | 
CC(=O)c1c(C)c2cnc(Nc3ccc(N(C)Cc4ccc(/C=C/C(=O)NO)cc4)cn3)nc2n(C2CCCC2)c1=O [Compound 2, (E)-3-(4-(((6-((6-acetyl-8-cyclopentyl-5-methyl-7-oxo-7,8-dihydropyrido[2,3-d]pyrimidin-2-yl)amino)pyridin-3-yl)(methyl)amino)methyl)phenyl)-N-hydroxyacrylamide] |  |  |  |  |  | > 2000 nM | 10 to 50 nM | 50 to 75 nM | 50 to 100 nM | 10 to 25 nM
CC(=O)c1c(C)c2cnc(Nc3ccc(N(C)CCCCCCC(=O)NO)cn3)nc2n(C2CCCC2)c1=O [Compound 9, 7-((6-((6-acetyl-8-cyclopentyl-5-methyl-7-oxo-7,8-dihydropyrido[2,3-d]pyrimidin-2-yl)amino)pyridin-3-yl)(methyl)amino)-N-hydroxyheptanamide] | > 5000 nM | 5 to 10 nM | 10 to 50 nM | 25 to 50 nM | 10 to 25 nM |  |  |  |  | 
CC(=O)c1c(C)c2cnc(Nc3ccc(OCCN(C)c4ncc(C(=O)NO)cn4)cn3)nc2n(C2CCCC2)c1=O [Compound 10, 2-((2-((6-((6-acetyl-8-cyclopentyl-5-methyl-7-oxo-7,8-dihydropyrido[2,3-d]pyrimidin-2-yl)amino)pyridin-3-yl)oxy)ethyl)(methyl)amino)-N-hydroxypyrimidine-5-carboxamide] | > 10000 nM | ≤ 5 nM | 10 to 50 nM | 25 to 50 nM | 10 to 25 nM |  |  |  |  | 
CC(=O)c1c(C)c2cnc(Nc3ccc(N(C)CCN(C)c4ncc(C(=O)NO)cn4)cn3)nc2n(C2CCCC2)c1=O [Compound 1, 2-((2-((6-((6-acetyl-8-cyclopentyl-5-methyl-7-oxo-7,8-dihydropyrido[2,3-d]pyrimidin-2-yl)amino)pyridin-3-yl) (methyl)amino)ethyl) (methyl)amino)-N-hydroxypyrimidine-5-carboxamide] |  |  |  |  |  | > 10000 nM | 5 to 10 nM | 10 to 50 nM | 25 to 50 nM | ≤ 10 nM

The remaining lines, values ahead:

IC50 [1, 6] | IC50 [2, 7] | IC50 [3, 8] | IC50 [4, 9] | IC50 [5, 10] | IC50 [1, 11] | IC50 [2, 12] | IC50 [3, 13] | IC50 [4, 14] | IC50 [5, 15] | Compound
> 2000 nM | ≤ 5 nM | 5 to 10 nM | 25 to 50 nM | ≤ 10 nM |  |  |  |  |  | CC(=O)c1c(C)c2cnc(Nc3ccc(OCCN(C)c4ccc(C(=O)NO)cn4)cn3)nc2n(C2CCCC2)c1=O [Compound 5, 6-((2-((6-((6-acetyl-8-cyclopentyl-5-methyl-7-oxo-7,8-dihydropyrido[2,3-d]pyrimidin-2-yl)amino)pyridin-3-yl)oxy)ethyl)(methyl)amino)-N-hydroxynicotinamide]
> 2000 nM |  |  | 25 to 50 nM | ≤ 10 nM |  |  |  |  |  | CC(=O)c1c(C)c2cnc(Nc3ccc(N4CCC(C(=O)NO)CC4)cn3)nc2n(C2CCCC2)c1=O [Compound 7, 1-(6-((6-acetyl-8-cyclopentyl-5-methyl-7-oxo-7,8-dihydropyrido[2,3-d]pyrimidin-2-yl)amino)pyridin-3-yl)-N-hydroxypiperidine-4-carboxamide]
> 2000 nM | 50 to 75 nM | 75 to 100 nM | 25 to 50 nM | 10 to 25 nM |  |  |  |  |  | CC(=O)c1c(C)c2cnc(Nc3ccc(N(C)CCN(C)c4ccc(C(=O)NO)cn4)cn3)nc2n(C2CCCC2)c1=O [Compound 3, 6-((2-((6-((6-acetyl-8-cyclopentyl-5-methyl-7-oxo-7,8-dihydropyrido[2,3-d]pyrimidin-2-yl)amino)pyridin-3-yl)(methyl)amino)ethyl)(methyl)amino)-N-hydroxynicotinamide]
